Test results as given in paper PMC11714206, “Massively Parallel Screening of Toll/Interleukin‐1 Receptor (TIR)‐Derived Peptides Reveals Multiple Toll‐Like Receptors (TLRs)‐Targeting Immunomodulatory Peptides” (Advanced Science, 2024).

Target: T1, MyD88^TIR (Homo sapiens, UniProt Q99836)
T1 construct: MyD88 (residues 148–296); 6xHis; made in house; host or cells: E. coli BL21 (DE3)
Test: T‐Surf phage library (P8 and P3) selection against MyD88^TIR, four rounds, NGS read counts
Format: binding
Settings: for P3_MyD88 Rank (after) / P3_MyD88 Rank (before): P3 library; for Population: 4th round of selection against MyD88 TIR, share of NGS reads; for P8_MyD88 Rank (after) / P8_MyD88 Rank (before): P8 library
Method in brief: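 Read counts come from NGS of phage pools after the fourth selection round, barcoded by 20-cycle PCR and filtered for quality ≥30. Each round: phage incubated 1 h at RT on immobilised TIR protein (5 µg mL^−1, BSA-blocked), washed, HCl-eluted and amplified in E. coli TG1.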

[1] = selection against MyD88, rank after grouping
[2] = selection against MyD88, rank before grouping
[3] = selection against MyD88, rank by count after grouping
[4] = selection against MyD88, rank by count before grouping
[5] = P8_MyD88: rank by count after grouping
[6] = P8_MyD88: rank by count before grouping
[7] = P8_MyD88 pool: P8 T-Surf phage library
[8] = P3_MyD88 pool: P3 T-Surf phage library
[9] = selection against MyD88 TIR, rank by count after grouping
[10] = selection against MyD88 TIR, rank by count before grouping
[11] = P3_MyD88: rank by count after grouping
[12] = P3_MyD88: rank by count before grouping
[13] = 4R selection against MyD88, rank after grouping
[14] = 4R selection against MyD88, rank before grouping
[15] = P8_MyD88: rank by NGS read count after grouping
[16] = P8_MyD88: rank by NGS read count before grouping

T1 sequence (Q99836 148-296): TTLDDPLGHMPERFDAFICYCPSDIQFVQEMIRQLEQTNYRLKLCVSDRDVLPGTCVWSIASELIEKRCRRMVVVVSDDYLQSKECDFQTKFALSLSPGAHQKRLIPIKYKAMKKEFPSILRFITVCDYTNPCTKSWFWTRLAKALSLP

## SENYATSTWAPDELVR
[1]
  P3_MyD88 Rank (after): 496
[2]
  P3_MyD88 Rank (before): 2998

## SENYVTSPCAVDELVP
[3]
  P3_MyD88 Rank (after): 712
[4]
  P3_MyD88 Rank (before): 2957

## SFSFPLDQLSYFLNLP
[5]
  Rank (after): 136
[6]
  Rank (before): 147
[7]
  Population: 0.0112%

## SFTDHLYAALVQAGIL
[5]
  Rank (after): 126
[6]
  Rank (before): 137
[7]
  Population: 0.0123%

## SGFREGLWRLLELSKK
[8]
  Population: 0.00291%

## SGQAVTEDKLGWLSNP
[3]
  P8_MyD88 Rank (after): 682
[4]
  P8_MyD88 Rank (before): 1660

## SIATLLYDQLSWLDIH
[9]
  P8_MyD88 Rank (after): 201
[10]
  P8_MyD88 Rank (before): 293

## SIWWILNELQEILNYQ
[1]
  P8_MyD88 Rank (after): 542
[2]
  P8_MyD88 Rank (before): 3800

## SLLYDHLRWLGIRAFL
[1]
  P8_MyD88 Rank (after): 541
[2]
  P8_MyD88 Rank (before): 3759

## SLRKNVVSNLLEEFKR
[1]
  P3_MyD88 Rank (after): 524
[2]
  P3_MyD88 Rank (before): 3079

## SLRQNLVSNLLEEFKR
[11]
  Rank (after): 480
[12]
  Rank (before): 3075

## SLRRNLVSNLIEEFIR
[13]
  P3_MyD88 Rank (after): 580
[14]
  P3_MyD88 Rank (before): 3076

## SMMPSSDFWKELALAL
[9]
  P8_MyD88 Rank (after): 217
[10]
  P8_MyD88 Rank (before): 369

## SMTPLSDFWKELALVL
[5]
  Rank (after): 97
[6]
  Rank (before): 101
[7]
  Population: 0.0231%

## SNFREGLWRLLELSKK
[8]
  Population: 0.00408%

## SNFREGLWRQQELSKK
[11]
  Rank (after): 438
[12]
  Rank (before): 3282

## SNFRKGLSRLLELSKK
[1]
  P3_MyD88 Rank (after): 572
[2]
  P3_MyD88 Rank (before): 3283

## SPLSYMWLDELVEIME
[15]
  Rank (after): 944
[16]
  Rank (before): 3764

## SPWALYELAMIIEAM
[1]
  P8_MyD88 Rank (after): 503
[2]
  P8_MyD88 Rank (before): 3761

## SPWALYELVEILTAYK
[5]
  Rank (after): 185
[6]
  Rank (before): 251

## SQRADCSWEWQKMLYP
[15]
  Rank (after): 953
[16]
  Rank (before): 1659

## SRDYASSPWALDELVL
[11]
  Rank (after): 146
[12]
  Rank (before): 3095

## SRDYATSPWALDELLR
[13]
  P3_MyD88 Rank (after): 627
[14]
  P3_MyD88 Rank (before): 3103

## SREYASCSWALTELVH
[13]
  P3_MyD88 Rank (after): 647
[14]
  P3_MyD88 Rank (before): 3106

## SRFREGLWPLLELSKK
[11]
  Rank (after): 156
[12]
  Rank (before): 3107

## SRFREGLWRLLKLSKK
[3]
  P3_MyD88 Rank (after): 715
[4]
  P3_MyD88 Rank (before): 3278

## SRLCVMCWKNCVLPN
[13]
  P3_MyD88 Rank (after): 624
[14]
  P3_MyD88 Rank (before): 3279

## SRYREGLWRLLELSKK
[11]
  Rank (after): 123
[12]
  Rank (before): 3109

## SSAWALNELVQIMKAW
[5]
  Rank (after): 399
[6]
  Rank (before): 1289

## SSCREGLWRLLELIKK
[13]
  P3_MyD88 Rank (after): 607
[14]
  P3_MyD88 Rank (before): 3259

## SSCREGLWRLLELSNK
[11]
  Rank (after): 402
[12]
  Rank (before): 3260

## SSCREGLWSLLELSKK
[1]
  P3_MyD88 Rank (after): 565
[2]
  P3_MyD88 Rank (before): 3262

## SSFCEGLWRLLELSKK
[8]
  Population: 0.00437%

## SSFHEGLWRMLELSKK
[3]
  P3_MyD88 Rank (after): 737
[4]
  P3_MyD88 Rank (before): 3250

## SSFLQGLWRLLELSKK
[1]
  P3_MyD88 Rank (after): 534
[2]
  P3_MyD88 Rank (before): 3122

## SSFLQHPWRLQKLSKK
[11]
  Rank (after): 399
[12]
  Rank (before): 3123

## SSFLQKLRRRLELSIV
[11]
  Rank (after): 478
[12]
  Rank (before): 3124

## SSFRDDLWRLLELSKK
[13]
  P3_MyD88 Rank (after): 582
[14]
  P3_MyD88 Rank (before): 3135

## SSFRDGLWRLLELSKT
[11]
  Rank (after): 106
[12]
  Rank (before): 1198

## SSFREALWRLIELSTK
[13]
  P3_MyD88 Rank (after): 667
[14]
  P3_MyD88 Rank (before): 3223

## SSFREALWRLLELSKN
[11]
  Rank (after): 167
[12]
  Rank (before): 3222

## SSFREALWRLLGLSEK
[9]
  P3_MyD88 Rank (after): 279
[10]
  P3_MyD88 Rank (before): 3225

## SSFRECLWRLEELSKK
[11]
  Rank (after): 457
[12]
  Rank (before): 3136

## SSFRECLWRLLELSKK
[8]
  Population: 0.00466%

## SSFRECLWSLPELSKK
[3]
  P3_MyD88 Rank (after): 699
[4]
  P3_MyD88 Rank (before): 3138

## SSFREDLCRLLALSNK
[9]
  P3_MyD88 Rank (after): 286
[10]
  P3_MyD88 Rank (before): 3226

## SSFREDLWRLLELSKK
[8]
  Population: 0.00437%

## SSFREGL*RLLELSKK
[8]
  Population: 0.00466%

## SSFREGLCRLLELSKK
[8]
  Population: 0.0032%

## SSFREGLCRLLELSKQ
[3]
  P3_MyD88 Rank (after): 725
[4]
  P3_MyD88 Rank (before): 3201

## SSFREGLLRLLELNKK
[11]
  Rank (after): 139
[12]
  Rank (before): 3237

## SSFREGLLRLLELSKK
[8]
  Population: 0.0032%

## SSFREGLRRLLELSKK
[8]
  Population: 0.00291%

## SSFREGLSRLPELSKK
[13]
  P3_MyD88 Rank (after): 589
[14]
  P3_MyD88 Rank (before): 3207
